Assay results as given in paper PMC8673317 (Journal of medicinal chemistry, 2021).
“Also recorded” adds a separate entry of the source. Where a name gives a salt, the structure may show the parent alone.

Columns and labels:
[1] = target: mDOR (Mus musculus, UniProt P32300); assay: [35S]GTPγS functional assay in membranes of transfected cells; conditions: antagonism of 100 nM agonist
[2] = tested on: humans; conditions: cited from earlier work
[3] = tested on: CD1 mice; conditions: cited from earlier work
[4] = tested on: 129Sv6 mice; assay: Radiant heat tail flick antinociception; type: in vivo, mouse; conditions: for antinociceptive activity in the tail-flick assay at doses as high as 100 mg/kg: alkaloid 2 po and sc, 9OH sc; for opioid receptor dependence of antinociception (MOR, DOR, KOR KO mice): 129Sv6 (and C57BL/6J) KO mice, KAE 100 mg/kg po in 129Sv6; for effect of naloxone on antinociception: naloxone 1 mg/kg sc 15 min before drug
[5] = target: T1, mKOR (Mus musculus, UniProt P33534); assay: [35S]GTPγS functional assay in membranes of transfected cells; conditions: relative to U50, 488H
[6] = target: T2, mMOR (Mus musculus, UniProt P42866); conditions: read-out: [35S]GTPγS mMOR EC50; agonist stimulation, ± SEM; cited from earlier work
[7] = target: T1, mKOR; conditions: agonist stimulation, ± SEM; cited from earlier work
[8] = tested on: C57BL/6J mice; conditions: MP 0.76, 1.5, 4 mg/kg sc; Figure 2L reprinted; listed as MP; cited from earlier work
[9] = tested on: C57BL/6J mice; assay: 55 °C warm-water tail-withdrawal; type: in vivo, mouse
[10] = tested on: MOR KO mice; assay: Antagonism of icv KOR/DOR agonist antinociception; type: in vivo, mouse; conditions: MP 30 mg/kg sc
[11] = Pharmacokinetic study, plasma and brain levels by LC-MS/MS
[12] = target: T3, CCR3 (Homo sapiens, UniProt P51677); assay: PRESTO-Tango concentration-response; type: cell-based
T3 sequence (P51677 1-355): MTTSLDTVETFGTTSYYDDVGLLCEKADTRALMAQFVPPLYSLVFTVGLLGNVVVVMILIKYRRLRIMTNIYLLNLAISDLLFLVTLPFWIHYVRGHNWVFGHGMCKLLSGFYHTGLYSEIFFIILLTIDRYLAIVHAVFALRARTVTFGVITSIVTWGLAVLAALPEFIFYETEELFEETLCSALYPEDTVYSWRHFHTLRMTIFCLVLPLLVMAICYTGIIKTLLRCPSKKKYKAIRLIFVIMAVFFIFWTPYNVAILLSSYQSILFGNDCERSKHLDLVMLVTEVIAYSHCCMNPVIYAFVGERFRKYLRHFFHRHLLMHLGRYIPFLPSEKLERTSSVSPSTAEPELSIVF

[13] = target: CXCR7 (Homo sapiens, UniProt P25106); assay: PRESTO-Tango concentration-response; type: cell-based
[14] = target: T4, BB3 (Homo sapiens, UniProt P32247); assay: PRESTO-Tango concentration-response; type: cell-based
T4 sequence (P32247 1-399): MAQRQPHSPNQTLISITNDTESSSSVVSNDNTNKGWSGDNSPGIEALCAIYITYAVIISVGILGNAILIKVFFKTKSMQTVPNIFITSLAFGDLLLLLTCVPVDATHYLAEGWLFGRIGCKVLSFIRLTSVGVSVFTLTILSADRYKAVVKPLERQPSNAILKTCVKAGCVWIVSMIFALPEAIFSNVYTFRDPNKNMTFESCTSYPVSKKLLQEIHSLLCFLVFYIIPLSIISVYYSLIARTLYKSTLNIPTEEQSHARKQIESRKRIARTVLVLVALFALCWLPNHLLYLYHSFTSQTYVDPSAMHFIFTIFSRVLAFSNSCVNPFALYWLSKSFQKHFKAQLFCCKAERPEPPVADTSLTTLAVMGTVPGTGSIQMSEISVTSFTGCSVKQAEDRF

[15] = tested on: C57BL/6J mice; assay: Lethality; type: in vivo, mouse
[16] = tested on: 318 non-olfactory GPCRs (opioid receptors); assay: PRESTO-Tango GPCRome β-arrestin2 recruitment screen; type: cell-based, human; conditions: 10 μM
[17] = tested on: MOR KO mice; assay: Lethality; type: in vivo, mouse
[18] = target: T2, mMOR; assay: [35S]GTPγS functional assay in membranes of transfected cells; conditions: read-out: [35S]GTPγS mMOR %Emax
[19] = tested on: mice; conditions: po; cited from earlier work
[20] = Stability in pH 7.4 buffer; type: physicochemical
[21] = tested on: rats; conditions: intravenous (iv) route; cited from earlier work
[22] = tested on: C57BL/6J mice; assay: Conditioned place preference and aversion; type: in vivo, mouse; conditions: alkaloid extract 100 mg/kg/d po, mitragynine 30 mg/kg/d po, 7OH 1 mg/kg/d sc
[23] = tested on: 129Sv6 mice; assay: Lethality; type: in vivo, mouse; conditions: from rodent oral LD50
[24] = Lethality; type: in vivo, mouse; conditions: 129Sv6, mouse, in vivo, po
[25] = Pharmacokinetic study, plasma and brain levels by LC-MS/MS; remark: listed apart in the source
[26] = tested on: C57BL/6J mice; assay: Locomotor; type: in vivo, mouse; conditions: KAE 45 mg/kg po, mitragynine 20 mg/kg po, 7OH 1 mg/kg sc, MP […] sc
[27] = pH 7.4
[28] = C57BL/6J, mitragynine 30 mg/kg po

T1 sequence (P33534 whole entry): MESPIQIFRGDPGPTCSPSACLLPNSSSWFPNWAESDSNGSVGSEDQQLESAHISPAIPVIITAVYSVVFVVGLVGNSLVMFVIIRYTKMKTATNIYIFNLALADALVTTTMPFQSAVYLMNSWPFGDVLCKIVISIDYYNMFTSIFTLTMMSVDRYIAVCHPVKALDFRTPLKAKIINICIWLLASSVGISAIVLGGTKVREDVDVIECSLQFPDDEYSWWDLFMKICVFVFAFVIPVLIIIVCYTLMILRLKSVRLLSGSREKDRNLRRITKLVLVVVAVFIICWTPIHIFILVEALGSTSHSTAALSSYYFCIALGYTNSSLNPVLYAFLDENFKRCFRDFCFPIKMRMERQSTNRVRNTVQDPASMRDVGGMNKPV
mDOR, sequence (P32300 whole entry): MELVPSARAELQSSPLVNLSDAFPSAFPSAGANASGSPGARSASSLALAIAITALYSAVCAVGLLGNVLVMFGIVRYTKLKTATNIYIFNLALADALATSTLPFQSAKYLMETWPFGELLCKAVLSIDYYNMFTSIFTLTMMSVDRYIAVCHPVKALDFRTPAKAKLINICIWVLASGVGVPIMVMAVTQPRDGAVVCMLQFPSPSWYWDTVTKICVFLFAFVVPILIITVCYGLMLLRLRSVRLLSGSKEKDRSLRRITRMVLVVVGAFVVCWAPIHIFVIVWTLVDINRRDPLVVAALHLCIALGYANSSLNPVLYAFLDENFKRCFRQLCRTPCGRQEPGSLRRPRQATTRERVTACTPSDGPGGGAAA
T2 sequence (P42866 whole entry): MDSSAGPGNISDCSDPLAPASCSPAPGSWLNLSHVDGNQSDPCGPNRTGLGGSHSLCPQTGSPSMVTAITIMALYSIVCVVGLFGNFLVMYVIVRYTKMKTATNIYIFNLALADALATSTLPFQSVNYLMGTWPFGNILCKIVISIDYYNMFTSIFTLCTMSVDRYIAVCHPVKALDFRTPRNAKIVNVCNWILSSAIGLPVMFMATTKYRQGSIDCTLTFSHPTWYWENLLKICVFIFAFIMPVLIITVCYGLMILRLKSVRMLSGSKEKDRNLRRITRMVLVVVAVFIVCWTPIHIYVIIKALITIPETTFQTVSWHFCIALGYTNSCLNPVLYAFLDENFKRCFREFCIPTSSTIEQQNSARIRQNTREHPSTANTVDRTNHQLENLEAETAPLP
CXCR7, sequence (P25106 whole entry): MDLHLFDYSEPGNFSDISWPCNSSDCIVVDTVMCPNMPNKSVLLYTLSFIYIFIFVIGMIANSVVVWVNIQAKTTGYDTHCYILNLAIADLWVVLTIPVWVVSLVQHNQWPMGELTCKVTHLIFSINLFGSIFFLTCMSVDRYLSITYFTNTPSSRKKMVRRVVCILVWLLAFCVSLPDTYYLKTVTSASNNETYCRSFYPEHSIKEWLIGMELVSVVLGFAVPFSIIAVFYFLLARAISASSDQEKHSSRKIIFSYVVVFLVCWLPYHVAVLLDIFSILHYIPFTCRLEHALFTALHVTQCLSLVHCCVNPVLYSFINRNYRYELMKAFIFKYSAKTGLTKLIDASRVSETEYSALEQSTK

Compound: CC[C@@H]1CN2CCc3c([nH]c4cccc(O)c34)[C@@H]2C[C@@H]1/C(=C\OC)C(=O)OC [9-hydroxy corynanthedine, 9-hydroxycorynantheidine]
- [35S]GTPγS mDOR IC50 [1]: no activity

Compound: CC[C@@H]1CN2CCc3c([nH]c4cccc(O[C@@H]5O[C@H](C(=O)O)[C@@H](O)[C@H](O)[C@H]5O)c34)[C@@H]2C[C@@H]1/C(=C\OC)C(=O)OC [9-glucuronoyl mitragynine, (2S,3S,5R,6S)-6-(((2S,3S)-2-((E)-1,3-Dimethoxy-3-oxoprop-1-en-2-yl)-3-ethyl-1,2,3,4,6,7,12,12b-octahydroindolo[2,3-a]quinolizin-8-yl)oxy)-3,4,5-trihydroxytetrahydro-2H-pyran-2-carboxylic Acid]
- [35S]GTPγS mDOR IC50 [1]: no activity

Compound: CN1CC[C@]23c4c5ccc(O)c4O[C@H]2[C@@H](O)C=C[C@H]3[C@H]1C5 [morphine]
- potency intravenously versus orally [2]: ~ 3 fold
- antinociceptive ED50 [3]: 5 mg/kg
- antinociceptive ED50 (95% CI), po ([4]; 129Sv6 mice, po, at peak effect): 3.32 (2.08–5.32) mg/kg

Compound: CC[C@H]1CN2CCc3c([nH]c4cccc(OC)c34)[C@@H]2C[C@@H]1/C(=C\OC)C(=O)OC [speciogynine]
- antinociceptive activity in the tail-flick assay at doses as high as 100 mg/kg ([4]; 129Sv6 mice): inactive
- [35S]GTPγS mKOR %Emax [5]: no activity

Compound: CC[C@@H]1CN2CC[C@]3(Nc4cccc(OC)c4C3=O)[C@@H]2C[C@@H]1/C(=C\OC)C(=O)OC [mitragynine pseudoindoxyl]
- EC50 [6]: 1.66 ± 0.1 nM
- [35S]GTPγS mKOR EC50 [7]: no activity
- inhibition of GI transit (in words) [8]: showed constipation at all doses
- opioid receptor dependence of antinociception (MOR, DOR, KOR KO mice) [4]: mediated through MOR, independent of DOR/KOR
- more antinociceptive potency than mitragynine (sc) ([4]; 129Sv6 mice, sc): > 100 fold
- effect of naloxone on antinociception [4]: naloxone-sensitive
- antinociceptive potency over sc morphine ([9]; C57BL/6J, sc): about 10 fold
- ED50 ([9]; Mus musculus, sc, read-out: antinociceptive ED50 (95% CI), sc): 0.26 mg/kg
- antinociceptive potency relative to morphine ([9]; sc, C57BL/6J and 129Sv6 strains): 2–10 fold
- antagonism of icv SNC 80 antinociception ([10]; SNC 80 100 nmol icv): antagonized
- antagonism of icv U50, 488H antinociception ([10]; U50, 488H 100 nmol icv): antagonized
- level in plasma and brain at 8 h [11, 28]: no quantifiable
- concentration at 20 min ([11]; C57BL/6J, mouse, plasma, sc): 0.41 ± 0.12 µM

Compound: C=C[C@H]1CN2CCc3c([nH]c4cccc(OC)c34)[C@@H]2C[C@@H]1/C(=C\OC)C(=O)OC [paynanthine, paynantheine]
- antinociceptive activity in the tail-flick assay at doses as high as 100 mg/kg ([4]; 129Sv6 mice): inactive

Compound: CC[C@@H]1C[N+]2=C(C[C@@H]1/C(=C\OC)C(=O)OC)c1[nH]c3cccc(OC)c3c1CC2 [3-dehydromitragynine, (2S,3S)-2-((E)-1,3-Dimethoxy-3-oxoprop-1-en-2-yl)-3-ethyl-8-methoxy-2,3,4,6,7,12-hexahydro-1H-indolo[2,3-a]quinolizin-5-ium TFA Salt]
- activity at CCR3 (in words) [12]: Poor (μM) activity
- activity at CXCR7 (in words) [13]: Poor (μM) activity
- activity at BB3 (in words) [14]: Poor (μM) activity
- lethality ([15]; 50 mg/kg, sc): 100%
- lethality in the presence of KOR antagonist (nor-BNI) and DOR antagonist (NTI) ([15]; 3DM 50 mg/kg sc, norBNI 10 mg/kg sc 24 h, NTI 20 mg/kg sc 15 min pretreatment): lethality was still observed
- antinociception in mice (in words) ([4]; administered directly): not antinociceptive
- increase in luminescence signal, fold of basal, at opioid receptors [16]: > 3 fold of basal
- off-target activity (in words) ([16]; Table 1 and Figure 6B): no other notable off–target activity beyond opioid receptors
- lethality ([17]; 50 mg/kg, sc): 100%
- Emax [18]: 44 ± 1%

Compound: CC[C@@H]1CN2CCc3c([nH]c4cccc(OC)c34)[C@@H]2C[C@@H]1/C(=C\OC)C(=O)OC [mitragynine]
- reported LD50 [19]: 477 mg/kg
- stability in D2O ([20]; 1H NMR at 1, 5, 10, 24 h, room temperature): stable
- stability in pH 7.4 buffer ([20]; LC/MS at 1, 5, 10 and 24 h): very stable
- [35S]GTPγS mKOR EC50 [7]: no activity
- self-administration [21]: not self-administered
- conditioned place preference (CPP/CPA) [22]: displayed CPP; also recorded: produced reward behavior
- oral LD50 corrected by standard allometric scaling, amount in an adult human [23]: > 2.5 g
- LD50 [24]: 750 mg/kg
- brain concentration of intact mitragynine ([25]; 129Sv6, po, ED80 dose (10 mg/kg)): 12.22 ± 3.4 µM
- brain concentration ([25]; 129Sv6, sc 10 mg/kg): 30.06 ± 8.12 µM
- lethality ([15]; 1 g/kg, po, data not shown): 100%
- opioid receptor dependence of antinociception (MOR, DOR, KOR KO mice) [4]: mediated by MOR (but not DOR and KOR)
- effect of naloxone on antinociception [4]: reversed
- hyperlocomotion compared to morphine [26]: attenuated
- time to peak antinociceptive effect ([9]; both strains (C57BL/6J, 129Sv6), po and sc): 15 to 20 min
- lethality (in words) ([17]; 1 g/kg po, C57BL/6J or MOR KO mice): death of all animals
- level in plasma and brain at 24 h [11, 28]: below detection limits
- brain concentration of intact mitragynine ([11]; C57BL/6J, po, ED80 dose (30 mg/kg)): 6.63 ± 0.67 µM
- brain concentration ([11]; C57BL/6J, sc 30 mg/kg): 9.74 ± 3.05 µM
- brain concentration greater than MOR agonist potency ([11]; po ED80 dose, C57BL/6J and 129Sv6): 30-to-60 fold
- increase of half-life in microsomes in the presence of ketoconazole [27]: ~ 5 fold
